# According to patent publication US20230192700A1, “PYRAZOLOPYRAZINES ACTING ON CANCERS VIA INHIBITION OF CDK12” (Bayer Aktiengesellschaft, priority 2020, published 2023):
# Where two headings read alike, the source gives them in different places.
# Legend:
# [1] = test system: MDA-MB-231 human breast cancer cells; assay: Proliferation assay MDA-MB-231 (crystal violet); assay type: cell-based; settings: MDA-MB-231 cells, 4 days, median, read-out: Prolif-MDA MB231 IC50 - [mol/l] (median)
# Procedure: 4. Proliferation assay: MDA-MB-231, CAL-120
# Human tumour cells were originally obtained from the American Type Culture Collection (ATCC), or from the Deutsche Sammlung von Mikroorganismen and Zellkulturen (DSMZ, German Collection of Microorganisms and Cell Cultures). Cultivated tumour cells (CAL-120, human breast adenocarcinoma cells, DSMZ ACC-459; MDA-M B-231, human breast cancer cells, ATCC HTB-26) were plated at a density of 4,000 cells/well in a 96-well multititer plate in 200 microL of their respective growth medium supplemented 10% fetal calf serum. After 24 hours, the cells of one plate (zero-point plate) were stained with crystal violet (see below), while the medium of the other plates was supplemented with the test substances in various concentrations (0 micromol/L, as well as in the range of 0.01-10 micromol/L; the final concentration of the solvent dimethyl sulfoxide was adjusted to 0.1%) using a Tecan HP D300 Digital Dispenser. The cells were incubated for 4 days in the presence of test substances. Cell proliferation was determined by staining the cells with crystal violet: the cells were fixed by adding 20 microL/measuring point of an 11% glutaric aldehyde solution for 15 minutes at room temperature. After three washing cycles of the fixed cells with water, the plates were dried at room temperature. The cells were stained by adding 100 microL/measuring point of a 0.1% crystal violet solution (pH 3.0). After three washing cycles of the stained cells with water, the plates were dried at room temperature. The dye was dissolved by adding 100 microL/measuring point of a 10% acetic acid solution. The extinction was determined by photometry at a wavelength of 595 nm. The change of cell number, in percent, was calculated by normalization of the measured values to the extinction values of the zero-point plate(=0%) and the extinction of the untreated (0 μM) cells(=100%). The IC50 values (inhibitory concentration at 50% of maximal effect) were determined by means of a 4 parameter fit.
# CDK12 = target: T1, CDK12 (Homo sapiens, UniProt Q9NYV4); assay: CDK12 nuclear protein level: immunofluorescence/high content analysis in CAL-120 cells; assay type: cell-based; settings: for DC50: CAL-120 cells, 24 h, nuclear CDK12 staining intensity, median, read-out: CDK12 degradation IF DC50 - [mol/l] (median); for (IC50 CDK12 high ATP) to (Degradation DC50 CDK12) ratio: ratio of IC50 CDK12 hATP (2 mM ATP) to DC50 CDK12 (IF, CAL-120)
# T1 construct: endogenous in cells; host or cells: CAL-120 human breast cancer cells (DSMZ ACC 459)
# T1 sequence (Q9NYV4 whole entry): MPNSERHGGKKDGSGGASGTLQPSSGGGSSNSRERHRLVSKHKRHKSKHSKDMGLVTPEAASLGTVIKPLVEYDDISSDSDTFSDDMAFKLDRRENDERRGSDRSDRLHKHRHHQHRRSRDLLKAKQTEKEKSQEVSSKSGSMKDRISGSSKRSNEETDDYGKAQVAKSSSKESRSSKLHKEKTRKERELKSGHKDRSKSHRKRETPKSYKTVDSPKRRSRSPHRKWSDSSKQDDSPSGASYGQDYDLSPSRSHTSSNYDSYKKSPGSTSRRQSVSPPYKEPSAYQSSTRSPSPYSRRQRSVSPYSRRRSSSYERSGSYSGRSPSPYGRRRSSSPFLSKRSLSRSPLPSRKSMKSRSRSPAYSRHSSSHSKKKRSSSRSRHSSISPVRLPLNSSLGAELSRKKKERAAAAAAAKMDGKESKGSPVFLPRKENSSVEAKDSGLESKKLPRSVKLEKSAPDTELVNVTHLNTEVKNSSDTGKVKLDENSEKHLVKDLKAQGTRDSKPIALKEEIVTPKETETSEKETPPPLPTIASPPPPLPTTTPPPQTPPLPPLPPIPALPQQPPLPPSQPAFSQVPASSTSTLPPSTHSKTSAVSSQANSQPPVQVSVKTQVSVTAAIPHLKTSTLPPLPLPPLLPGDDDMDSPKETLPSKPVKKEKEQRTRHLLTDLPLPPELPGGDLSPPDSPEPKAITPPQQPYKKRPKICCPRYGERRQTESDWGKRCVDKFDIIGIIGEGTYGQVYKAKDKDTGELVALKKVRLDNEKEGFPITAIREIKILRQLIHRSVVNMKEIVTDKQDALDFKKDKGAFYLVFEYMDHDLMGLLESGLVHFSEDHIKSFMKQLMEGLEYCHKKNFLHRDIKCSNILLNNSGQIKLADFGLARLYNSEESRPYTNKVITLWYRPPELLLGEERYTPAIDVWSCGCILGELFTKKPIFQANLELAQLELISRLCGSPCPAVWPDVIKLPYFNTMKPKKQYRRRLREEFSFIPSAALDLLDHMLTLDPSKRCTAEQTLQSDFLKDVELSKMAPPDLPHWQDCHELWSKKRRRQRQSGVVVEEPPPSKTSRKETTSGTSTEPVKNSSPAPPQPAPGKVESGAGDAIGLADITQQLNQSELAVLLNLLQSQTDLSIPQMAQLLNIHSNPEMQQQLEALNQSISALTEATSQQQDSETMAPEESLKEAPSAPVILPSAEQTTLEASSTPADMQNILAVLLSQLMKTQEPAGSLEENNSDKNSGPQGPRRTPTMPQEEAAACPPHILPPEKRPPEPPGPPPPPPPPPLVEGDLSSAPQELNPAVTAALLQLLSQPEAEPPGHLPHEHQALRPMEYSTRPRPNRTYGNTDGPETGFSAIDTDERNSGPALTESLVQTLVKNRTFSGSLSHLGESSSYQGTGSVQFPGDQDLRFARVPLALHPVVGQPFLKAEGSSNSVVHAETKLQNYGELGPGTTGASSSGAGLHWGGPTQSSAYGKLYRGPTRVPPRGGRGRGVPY
# T1 sequence (O75909 whole entry partner): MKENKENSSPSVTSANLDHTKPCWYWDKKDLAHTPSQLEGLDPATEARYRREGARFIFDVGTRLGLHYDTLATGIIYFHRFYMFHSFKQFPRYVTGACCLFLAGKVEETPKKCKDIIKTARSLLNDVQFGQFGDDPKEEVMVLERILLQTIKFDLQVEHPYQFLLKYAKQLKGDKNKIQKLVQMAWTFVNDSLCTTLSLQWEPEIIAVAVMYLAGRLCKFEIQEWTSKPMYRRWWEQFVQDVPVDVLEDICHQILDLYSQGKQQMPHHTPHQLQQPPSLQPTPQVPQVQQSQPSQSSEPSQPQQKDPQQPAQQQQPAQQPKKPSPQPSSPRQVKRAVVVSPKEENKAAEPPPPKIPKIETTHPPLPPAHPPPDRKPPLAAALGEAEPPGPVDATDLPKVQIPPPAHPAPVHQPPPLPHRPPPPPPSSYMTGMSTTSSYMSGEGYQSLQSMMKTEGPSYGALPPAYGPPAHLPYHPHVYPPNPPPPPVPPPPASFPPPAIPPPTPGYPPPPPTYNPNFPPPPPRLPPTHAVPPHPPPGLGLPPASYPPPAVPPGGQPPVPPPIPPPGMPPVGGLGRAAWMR
# Procedure: 6. CDK12 Nuclear Protein Level: Immunofluorescence/High Content Analysis
# In the context of the present invention, the term “DC50 CDK12” refers to the DC50 values obtained according to the assay described in this section (6) herein below, i.e. the DC50 values for the degradation of CDK12.:
# CAL-120 human breast cancer cells (DSMZ ACC 459) are seeded in 1536-well microtiter plates (800 cells per well) containing 50 nanoL of compounds in Dose-Response. Control wells received DMSO or Reference Example 1. Plates are then incubated for 24 h at 37° C. in an humidified incubator and fixed with 4% PFA for 10 min. Then immunofluorescence (IF) against CDK12 (CellSignalling CDK12 Antibody #11973, rabbit, 1:100 dilution) is performed using standard IF protocols. Cells are then stained with Hoechst 33342 (Life Technologies, H-1399, 0.1 microg/mL) and imaged on an automated confocal microscopy system (e.g. Perkin Elmer Opera Phenix). Nuclear and cytoplasmic intensity as well as the nuclear/cytoplasmic intensity ratio is determined by automated image analysis using custom generated scripts (MetaXpress). Data is then transferred to Genedata Screener software, normalized to DMSO and control and DC50 values (degrading concentration to achieve 50% reduction of nuclear CDK12 staining intensity relative to controls) are reported.
"IC50 ([1]; Homo sapiens, MDA-MB-231, 96 h) [nM]",DC50 (CDK12) [nM],(IC50 CDK12 high ATP) to (Degradation DC50 CDK12) ratio (CDK12),IC50 [1] [nM],SMILES
176,74.9,>267,,"CC(C)(C)OC(=O)N1CCC(n2nc(NCc3nc4ccccc4[nH]3)c3ncc(C4CC4)nc32)CC1 [Example 11, tert-butyl 4-(3-{[(1H-benzimidazol-2-yl)methyl]amino}-6-cyclopropyl-1H-pyrazolo[3,4-b]pyrazin-1-yl)piperidine-1-carboxylate]"
114,162,>124,,"FC1(F)CCC(n2nc(NCc3nc4ccccc4[nH]3)c3ncc(C4CC4)nc32)CC1 [Example 36, N-[(1H-benzimidazol-2-yl)methyl]-6-cyclopropyl-1-(4,4-difluorocyclohexyl)-1H-pyrazolo[3,4-b]pyrazin-3-amine]"
14.5,17.5,>1145,,"CN1CCC(n2nc(NCc3nc4cc(Cl)c(F)cc4[nH]3)c3ncc(C4CC4)nc32)CC1 [Example 29, N-[(5-chloro-6-fluoro-1H-benzimidazol-2-yl)methyl]-6-cyclopropyl-1-(1-methylpiperidin-4-yl)-1H-pyrazolo[3,4-b]pyrazin-3-amine]"
141,112,>90,,"OC1(Cn2nc(NCc3nc4ccccc4[nH]3)c3ncc(C4CC4)nc32)CCCC1 [Example 73, 1-[(3-{[(1H-benzimidazol-2-yl)methyl]amino}-6-cyclopropyl-1H-pyrazolo[3,4-b]pyrazin-1-yl)methyl]cyclopentan-1-ol]"
109,18.7,>536,,"OC1(Cn2nc(NCc3nc4ccccc4[nH]3)c3ncc(C4CC4)nc32)CCC1 [Example 72, 1-[(3-{[(1H-benzimidazol-2-yl)methyl]amino}-6-cyclopropyl-1H-pyrazolo[3,4-b]pyrazin-1-yl)methyl]cyclobutan-1-ol]"
38.8,14.2,,,"CN1CCCC(n2nc(NCc3nc4ccccc4[nH]3)c3ncc(C4CC4)nc32)CC1 (racemic) [Example 34, (±)-N-[(1H-benzimidazol-2-yl)methyl]-6-cyclopropyl-1-(1-methylazepan-4-yl)-1H-pyrazolo[3,4-b]pyrazin-3-amine]"
10.8,6.09,>3284,,"COc1cccc2[nH]c(CNc3nn(C4CCN(C)CC4)c4nc(C5CC5)cnc34)nc12 [Example 2, 6-cyclopropyl-N-[(4-methoxy-1H-benzimidazol-2-yl)methyl]-1-(1-methylpiperidin-4-yl)-1H-pyrazolo[3,4-b]pyrazin-3-amine]"
59.5,19.1,>1046,,"CN1CCC(n2nc(NCc3nc4ccccc4[nH]3)c3ncc(C4CC4)nc32)C1 (racemic) [Example 35, (±)-N-[(1H-benzimidazol-2-yl)methyl]-6-cyclopropyl-1-(1-methylpyrrolidin-3-yl)-1H-pyrazolo[3,4-b]pyrazin-3-amine]"
645,29.1,>687,,"CN(C)CCn1nc(NCc2nc3ccccc3[nH]2)c2ncc(C3CC3)nc21 [Example 68, N-[(1H-benzimidazol-2-yl)methyl]-6-cyclopropyl-1-[2-(dimethylamino)ethyl]-1H-pyrazolo[3,4-b]pyrazin-3-amine]"
268,21,>937,,"COC(C)(C)CCn1nc(NCc2nc3ccccc3[nH]2)c2ncc(C3CC3)nc21 [Example 67, N-[(1H-benzimidazol-2-yl)methyl]-6-cyclopropyl-1-(3-methoxy-3-methylbutyl)-1H-pyrazolo[3,4-b]pyrazin-3-amine]"
,12.6,>1589,15.1,"CN1CCCC(n2nc(NCc3nc4ccccc4[nH]3)c3ncc(C4CC4)nc32)CC1 (single isomer, unassigned) [Example 37, (+) or (−)-N-[(1H-benzimidazol-2-yl)methyl]-6-cyclopropyl-1-[(4R*)-1-methylazepan-4-yl]-1H-pyrazolo[3,4-b]pyrazin-3-amine]"
70.2,84,>238,,"c1ccc2[nH]c(CNc3nn(C4CCOCC4)c4nc(C5CC5)cnc34)nc2c1 [Example 16, N-[(1H-benzimidazol-2-yl)methyl]-6-cyclopropyl-1-(oxan-4-yl)-1H-pyrazolo[3,4-b]pyrazin-3-amine]"
51.3,4.3,,,"CN1CCC(n2nc(NCc3nc4cc(F)ccc4[nH]3)c3ncc(C4CC4)nc32)CC1 [Example 4, 6-cyclopropyl-N-[(5-fluoro-1H-benzimidazol-2-yl)methyl]-1-(1-methylpiperidin-4-yl)-1H-pyrazolo[3,4-b]pyrazin-3-amine]"
28.6,31.7,388,,"Fc1cccc2[nH]c(CNc3nn(C4CCOCC4)c4nc(C5CC5)cnc34)nc12 [Example 23, 6-cyclopropyl-N-[(4-fluoro-1H-benzimidazol-2-yl)methyl]-1-(oxan-4-yl)-1H-pyrazolo[3,4-b]pyrazin-3-amine]"
,13.2,>1516,46.5,"CN1CCCC(n2nc(NCc3nc4ccccc4[nH]3)c3ncc(C4CC4)nc32)CC1 (single isomer, unassigned) [Example 38, (−) or (+)-N-[(1H-benzimidazol-2-yl)methyl]-6-cyclopropyl-1-[(4R*)-1-methylazepan-4-yl]-1H-pyrazolo[3,4-b]pyrazin-3-amine]"
151,40.8,>4901,,"c1ccc2[nH]c(CNc3nn(C4CCOC4)c4nc(C5CC5)cnc34)nc2c1 (racemic) [Example 10, (±)-N-[(1H-benzimidazol-2-yl)methyl]-6-cyclopropyl-1-[oxolan-3-yl]-1H-pyrazolo[3,4-b]pyrazin-3-amine]"
66.1,7.12,,,"CC(C)(O)C1CC(n2nc(NCc3nc4ccccc4[nH]3)c3ncc(C4CC4)nc32)C1 (mixture of isomers) [Example 48, 2-[cis/trans-3-(3-{[(1H-benzimidazol-2-yl)methyl]amino}-6-cyclopropyl-1H-pyrazolo[3,4-b]pyrazin-1-yl)cyclobutyl]propan-2-ol]"
47.2,13.8,,,"OC[C@H]1C[C@H](n2nc(NCc3nc4ccccc4[nH]3)c3ncc(C4CC4)nc32)C1 [Example 46, [trans-3-(3-{[(1H-benzimidazol-2-yl)methyl]amino}-6-cyclopropyl-1H-pyrazolo[3,4-b]pyrazin-1-yl)cyclobutyl]methanol]"
24.9,4.2,>2380,,"CN1CCC(n2nc(NCc3nc4ccccc4[nH]3)c3ncc(C4CC4)nc32)CC1 [Example 1, N-[(1H-benzimidazol-2-yl)methyl]-6-cyclopropyl-1-(1-methylpiperidin-4-yl)-1H-pyrazolo[3,4-b]pyrazin-3-amine]"
,17.5,>1142,151,"c1ccc2[nH]c(CNc3nn(C4CCOC4)c4nc(C5CC5)cnc34)nc2c1 (single isomer, unassigned) [Example 18, (-) or (+) -N-[(1H-benzimidazol-2-yl)methyl]-6-cyclopropyl-1-[oxolan-3-yl]-1H-pyrazolo[3,4-b]pyrazin-3-amine]"
